Where a chain is given by its changes, count along the chain named.
What was measured:
IFN-γR2 [1] = molecular target: T1, IFN-γR2 (Homo sapiens, UniProt P38484); test: competition of photoaffinity labelling in living cells, anti-GFP IP, autoradiography; format: cell-based; conditions: competes with [3H]-photo-chol, dose-dependent; curve only in supplement
T1 construct: gene IFNGR2; full-length, C-terminal GFP fusion (peGFP-N1); transiently expressed in CHO (with IFN-γR1-RLuc) or HAP1 IFN-γR2 KO cells; in the functional receptor two R1 and two R2 chains
T1 sequence (P38484 22-337): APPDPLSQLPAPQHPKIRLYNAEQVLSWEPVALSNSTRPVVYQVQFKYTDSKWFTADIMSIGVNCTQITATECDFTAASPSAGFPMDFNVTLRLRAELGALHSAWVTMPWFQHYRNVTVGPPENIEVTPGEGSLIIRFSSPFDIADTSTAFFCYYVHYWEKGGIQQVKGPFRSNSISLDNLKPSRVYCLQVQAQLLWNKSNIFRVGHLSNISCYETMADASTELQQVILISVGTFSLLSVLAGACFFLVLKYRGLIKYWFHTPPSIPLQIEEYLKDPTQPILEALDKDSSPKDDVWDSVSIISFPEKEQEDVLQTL

IFN-γR2 [2] = molecular target: T2, IFN-γR2 (Homo sapiens, UniProt P38484, L250T/I251T/G254F); test: in vivo photoaffinity labelling, UV cross-link, anti-GFP IP, autoradiography; format: cell-based; conditions: 3 µM probe, 6 h; full-length GFP fusion, CHO and HAP1 IFN-γR2 KO cells; covalent; labelled compound; with or without IFN-γ
T2 construct: gene IFNGR2; full-length, C-terminal GFP fusion (peGFP-N1); transiently expressed in CHO (with IFN-γR1-RLuc) or HAP1 IFN-γR2 KO cells
T2 sequence (P38484 22-337 L250T/I251T/G254F): T1 sequence (P38484 22-337) with L229T, I230T, G233F

| Molecule | competition of photoaffinity labelling in living cells, anti-GFP IP, autoradiogr (IFN-γR2 [1]) | % reduction of chol binding vs wild type (IFN-γR2 [2]) [%] |
| --- | --- | --- |
| CC(C)CCC[C@@H](C)[C@H]1CC[C@H]2[C@@H]3CC=C4C[C@@H](O)CC[C@]4(C)[C@H]3CC[C@]12C [chol] | cross‐linking between [^3H]‐photo‐chol and IFN‐γR2 was competed in a dose‐dependent manner | – |
| [3H]-photo-chol | – | > 50 |

Reference: article PMC9008429, “Identification of a New Cholesterol‐Binding Site within the IFN‐γ Receptor that is Required for Signal Transduction” (Advanced Science, 2022)
